{"source": "patent US20230263748A1", "about": "“APPLICATION OF BENFLUMETOL AND DERIVATIVES THEREOF IN TREATMENT OF CORONAVIRUS INFECTION” (ACADEMY OF MILITARY MEDICAL SCIENCES, priority 2020, published 2023)", "key": {"SARS-CoV-2": {"system": "SARS-CoV-2", "type": "cell-based", "details": "for Viral genome copy number (MOI = 0.05): supernatant"}, "Vero E6 cells": {"system": "Vero E6 cells", "assay": "Detection of drug cytotoxicity by CCK-8 kit", "type": "cell-based", "details": "for Cell viability (% of negative control): Vero E6, 48 h", "method": "The detection of drug cytotoxicity was performed by CCK-8 kit (Beoytime). Specific steps were as follows: • (1) 1×10^4 Vero E6 (ATCC) cells were inoculated in a 96-well plate and cultured at 37° C. for 8 hours. • (2) The drug was diluted with DMSO to obtain a stock solution with an appropriate concentration, and then diluted with MEM medium (purchased from Gibco, Cat. No. 10370021) containing 2% FBS (purchased from Gibco, Cat. No. 16000044) to the same concentration as that for the drug treatment. The original medium in the 96-well plate was discarded, 100 μL of drug-containing MEM medium was added to the cells, and three replicate wells were set for each concentration. Negative control (adding DMSO and medium to the cell wells, without adding drug) and blank control (no cells, adding DMSO and medium) were set. After the drug was added, the cells were cultured at 37° C. for 48 hours. • (3) 20 μL of CCK-8 solution (Beoytime) was added to the wells to be tested, mixed gently without generating air bubbles, and incubation was continued at 37° C. for 2 hours. OD450 was read on a microplate reader (purchased from Molecular Devices, model: SpectraMax M5), and cell viability was calculated:\nCell viability (%)=(A(drug treatment group)−A(blank control))/(A(negative control)−A(blank control))×100% • wherein A represents reading of microplate reader."}}, "note": "Where two headings read alike, the source gives them in different places.", "data": [{"smiles": "CCCCN(CCCC)CC(O)c1cc(Cl)cc2c1-c1ccc(Cl)cc1/C2=C/c1ccc(Cl)cc1", "note": "(centres unmarked) [benflumetol]", "values": [{"measurement": "Viral genome copy number (MOI = 0.05)", "setting": "SARS-CoV-2; 3.13 μM, Vero E6 cells, 48 h after infection", "result": 125717580}, {"measurement": "Viral genome copy number (MOI = 0.05)", "setting": "SARS-CoV-2; 6.25 μM, Vero E6 cells, 48 h after infection", "result": 87462582}, {"measurement": "Viral genome copy number (MOI = 0.05)", "setting": "SARS-CoV-2; 12.5 μM, Vero E6 cells, 48 h after infection", "result": 87790130}, {"measurement": "Viral genome copy number (MOI = 0.05)", "setting": "SARS-CoV-2; 25 μM, Vero E6 cells, 48 h after infection", "result": 48801530}, {"measurement": "Viral genome copy number (MOI = 0.05)", "setting": "SARS-CoV-2; 50 μM, Vero E6 cells, 48 h after infection", "result": 20512679}, {"measurement": "Viral genome copy number (MOI = 0.05)", "setting": "SARS-CoV-2; 100 μM, Vero E6 cells, 48 h after infection", "result": 2927366}, {"measurement": "Inhibition of viral RNA load on cells, dose dependence (in words)", "setting": "SARS-CoV-2; Vero E6 cells, 48 h after infection, FIG. 1", "result": "the inhibitory activity was dose-dependent"}, {"measurement": "Inhibition of replication of the SARS-CoV-2 virus genome in the infection supernatant (in words)", "setting": "SARS-CoV-2; at 100 μM, 50 μM and 25 μM", "result": "effectively inhibit the replication of the SARS-CoV-2 virus genome"}, {"measurement": "Cell viability (% of negative control)", "setting": "Vero E6 cells; 0.78 μM", "result": 92.88, "unit": "%"}, {"measurement": "Cell viability (% of negative control)", "setting": "Vero E6 cells; 1.56 μM", "result": 94.55, "unit": "%"}, {"measurement": "Cell viability (% of negative control)", "setting": "Vero E6 cells; 3.13 μM", "result": 96.69, "unit": "%"}, {"measurement": "Cell viability (% of negative control)", "setting": "Vero E6 cells; 6.25 μM", "result": 106.70, "unit": "%"}, {"measurement": "Cell viability (% of negative control)", "setting": "Vero E6 cells; 12.5 μM", "result": 108.69, "unit": "%"}, {"measurement": "Cell viability (% of negative control)", "setting": "Vero E6 cells; 25 μM", "result": 113.54, "unit": "%"}, {"measurement": "Cell viability (% of negative control)", "setting": "Vero E6 cells; 50 μM", "result": 115.52, "unit": "%"}, {"measurement": "Cell viability (% of negative control)", "setting": "Vero E6 cells; 100 μM", "result": 122.12, "unit": "%"}, {"measurement": "Toxic effect on the cells (in words)", "setting": "Vero E6 cells; all test concentrations", "result": "no toxic effect on the cells at all concentrations"}]}]}
